Measurements reported in patent publication US7985417B2, “Method of lipid structure preparation” (Yissum Research Development Company of the Hebrew …, priority 2004, dated 2011).

Assays:
[1] = Apparent pKa of DOPE-HC in EPC liposomes before and after insertion of PEG-DSPE; format: physicochemical
Experimental: (§1) More generally, and as noted above, the method of microwave irradiation can also be used to insert a lipid-polymer (“lipopolymer”), that is a lipopolymer lacking any ligand, into a pre-formed lipid structure, such as liposomes. This general concept was illustrated in another study, described in Example 4, where liposomes having a lipid bilayer of egg phosphatidylcholine and including a fluorescent label were incubated with a micellar suspension of the lipopolymer DSPE-PEG. Two studies were done, using two different fluorescent labels, shown in FIGS. 4A-4B, incorporated into the liposome lipid bilayers. […] A small amount of one of the fluorescent lipidic labels was included in the lipids during formation of the liposomes.
The DOPE-HC-labeled egg PC liposomes were incubated with DSPE-PEG (MW 2000 Daltons) conjugates in the presence of microwave irradiation for 90 seconds. The extent of lipopolymer insertion was calculated from the apparent pKa, as described in Example 4.
Also in this study, a sample of the EPC liposomes was combined with free polyethylene glycol (PEG, MW 2000 Daltons) and exposed for 90 seconds to microwave irradiation in the microwave oven at 60% capacity (850 W total capacity). No insertion of free PEG (i.e., PEG lacking a lipidic or hydrophobic portion) into liposomes was observed.
(§2) Liposomes comprised of egg phosphatidylcholine (EPC) and labeled with a pH-sensitive probe, 7-heptadecyl-4-hydroxycoumarin (C17HC) (FIG. 4A) or 1,2-dioleoyl-sn-glycero-3-phosphoethanolamine (DOPE-HC) (FIG. 4B), were prepared by thin film hydration followed by down sizing using extrusion. Briefly, EPC and one of the pH-sensitive probes were dissolved in an organic solvent in a round-bottomed flask. The solvent was removed by rotary evaporation to form a thin lipid film that was hydrated with an aqueous buffer to form multilamellar liposomes. The liposome suspension was sized by extrusion through polycarbonate membranes to an average diameter of 100 nm.
(§3) A conjugate of DSPE-PEG (PEG MW 2000 Daltons) was obtained commercially. A micellar suspension of the DSPE-PEG conjugate was mixed with a suspension of the labeled-EPC liposomes were incubated for 90 seconds in the presence of microwave irradiation in a conventional microwave oven operated at 60% power (Spectra, 850 W capacity). The extent of conjugate insertion was determined by the shift in the apparent pKa of HC moiety.
With respect to the liposomes labeled with DOPE-HC, the apparent pKa of DOPE-HC was calculated from the change of the ratio of excitation wavelengths 370/408 (emission wavelength 480 nm) as a function of bulk pH. Fluorescence was measured using an LS-50B luminescence spectrometer (Perkin Elmer, Norwalk, Conn.) immediately after exposure of microwave irradiation and 48 hours after exposure.

[2] = Apparent pKa of C17HC in EPC liposomes before and after insertion of PEG-DSPE; format: physicochemical
Experimental: as §1, §2, §3
With respect to the liposomes labeled with C17HC, the apparent pKa of C17HC was calculated from the change of the ratio of excitation wavelengths 380/330 (emission wavelength 450 nm) as a function of bulk pH (Zuidam and Barenholz, Biochim Biophys Acta, 1329(2):211-22 (1997)). Fluorescence was measured using an LS-50B luminescence spectrometer (Perkin Elmer, Norwalk, Conn.). As a comparative reference, the insertion of DSPE-PEG into the same liposomes at room temperature was also measured.

[3] = EPC with PEG-DSPE (90 sec in MW) after 48 hours
[4] = EPC with PEG-DSPE (90 sec in MW) immediately

CCCCCCCC/C=C\CCCCCCCC(=O)OC[C@H](COP(=O)(O)OCCN)OC(=O)CCCCCCC/C=C\CCCCCCCC [DOPE-HC, 1,2-dioleoyl-sn-glycero-3-phosphoethanolamine]
apparent pKa ([1]; EPC with PEG (90 sec in MW) after 48 hours): 9.08
apparent pKa ([1]; EPC with PEG (90 sec in MW) immediately): 9.09
apparent pKa [1, 3]: 9.38
apparent pKa [1, 4]: 9.26
apparent pKa ([1]; EPC without PEG-DSPE or 2000PEG, after 48 hours): 9.28
apparent pKa ([1]; EPC without PEG-DSPE or PEG): 9.12

CCCCCCCCCCCCCCCCCc1ccc2c(O)cc(=O)oc2c1 [C17HC, 7-heptadecyl-4-hydroxycoumarin]
apparent pKa [2, 3]: 10.28
apparent pKa [2, 4]: 9.98
apparent pKa ([2]; EPC with PEG-DSPE (5 hours at RT)): 10.13
apparent pKa ([2]; EPC with PEG-DSPE (5 hours at RT) after 48 hours): 10.14
apparent pKa ([2]; EPC without PEG-DSPE): 9.41
